Laboratory results taken from patent US9708336B2, “Metallo-beta-lactamase inhibitors” (priority 2014, dated 2017).
Like-named read-outs stand apart in the source and are kept apart here.

Experiments:
[1] = molecular target: NDM-1 (Klebsiella pneumoniae, UniProt C7C422); assay: biochemical; type: biochemical
[2] = molecular target: IMP-1 (Serratia marcescens, UniProt P52699); assay: biochemical; type: biochemical; details: read-out: IMP-1 IC50
[3] = molecular target: VIM-1 (Pseudomonas aeruginosa (strain ATCC 15692 / DSM 22644 / CIP 104116 / JCM 14847 / LMG 12228 / 1C / PRS 101 / PAO1), UniProt A0A0F7KYQ8); assay: Enzyme activity: determination of IC50, fluorescence assay with CCF2-FA substrate (VIM-1); type: biochemical
[4] = system: Escherichia coli expressing NDM-1 (CLB30016); assay: Antibiotic potentiation activity: synergistic concentration (MITC95) with imipenem, OD600 growth; type: cell-based; details: for Escherichia coli expressing NDM-1 (CLB 30016) MITC95: concentration giving 95% inhibition of bacterial growth
In short: (§1)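 Each strain, suspended in saline from overnight colonies and diluted 1:100 into 1.1× CAMHB, is dosed with imipenem at 4 μg/ml (or 1 μg/ml) plus compound, incubated 22–24 h at 35 °C and read by absorbance.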

[5] = system: Klebsiella pneumoniae expressing VIM-1 (IHMA599644); assay: as above; type: cell-based; details: for Klebsiella pneumoniae expressing VIM-1 (IHMA 599644) MITC95: concentration giving 95% inhibition of bacterial growth
In short: as §1

[6] = system: Serratia marcescens expressing IMP-1 (CL5741); assay: as above; type: cell-based; details: for Serratia marcescens expressing IMP-1 (CL5741) MITC95: concentration giving 95% inhibition of bacterial growth
In short: as §1

[7] = fluorescence assay with CCF2-FA substrate, read-out: NDM-1 IC50
[8] = fluorescence assay with CCF2-FA substrate
[9] = fluorescence assay with CCF2-FA substrate, read-out: VIM-1 IC50
[10] = NDM-1 enzyme, CCF2-FA fluorescence assay, read-out: NDM-1 IC50
[11] = IMP-1 enzyme, CCF2-FA fluorescence assay
[12] = VIM-1 enzyme, CCF2-FA fluorescence assay, read-out: VIM-1 IC50
[13] = Escherichia coli expressing NDM-1 (CLB30016), 95% growth inhibition
[14] = Klebsiella pneumoniae expressing VIM-1 (IHMA599644), 95% growth inhibition
[15] = Serratia marcescens expressing IMP-1 (CL5741), 95% growth inhibition
[16] = NDM-1 enzyme, CCF2-FA substrate, read-out: NDM-1 IC50
[17] = IMP-1 enzyme, CCF2-FA substrate
[18] = VIM-1 enzyme, CCF2-FA substrate, read-out: VIM-1 IC50
[19] = (CLB30016, NDM-1), 95% growth inhibition
[20] = Klebsiella pneumoniae IHMA599644 (VIM-1), 95% growth inhibition
[21] = Serratia marcescens CL5741 (IMP-1), 95% growth inhibition
[22] = VIM-1 IC50, VIM-1 enzyme, CCF2-FA substrate
[23] = VIM-1 IC50, VIM-1 enzyme, CCF2-FA fluorescence assay
[24] = VIM-1 IC50, fluorescence assay with CCF2-FA substrate

IMP-1, sequence (P52699 whole entry, looked up): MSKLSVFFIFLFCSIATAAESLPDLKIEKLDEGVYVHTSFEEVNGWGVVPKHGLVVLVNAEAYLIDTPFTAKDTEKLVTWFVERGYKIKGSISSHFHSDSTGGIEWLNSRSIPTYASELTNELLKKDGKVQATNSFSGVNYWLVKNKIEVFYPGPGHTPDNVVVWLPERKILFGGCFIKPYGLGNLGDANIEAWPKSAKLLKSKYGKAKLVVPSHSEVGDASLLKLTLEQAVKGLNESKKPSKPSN
NDM-1, sequence (C7C422 whole entry, looked up, species assumed): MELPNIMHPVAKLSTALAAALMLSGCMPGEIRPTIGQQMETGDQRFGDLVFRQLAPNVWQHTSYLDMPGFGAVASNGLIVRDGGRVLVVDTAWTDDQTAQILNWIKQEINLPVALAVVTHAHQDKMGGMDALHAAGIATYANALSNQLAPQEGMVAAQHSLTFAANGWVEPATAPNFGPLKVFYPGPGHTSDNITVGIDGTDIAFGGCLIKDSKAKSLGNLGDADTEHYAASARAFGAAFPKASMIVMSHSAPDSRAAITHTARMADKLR

Compound | IC50 [1, 10] [nM] | IC50 [2, 11] [nM] | IC50 [3, 12] [nM] | Escherichia coli MITC95 [4, 13] [µM] | Klebsiella pneumoniae MITC95 [5, 14] [µM] | Serratia marcescens MITC95 [6, 15] [µM] | IC50 [1, 16] [nM] | IC50 [2, 17] [nM] | Escherichia coli MITC95 [4, 19] [µM] | Klebsiella pneumoniae MITC95 [5, 20] [µM] | Serratia marcescens MITC95 [6, 21] [µM] | other results
NS(=O)(=O)c1nccc(N2CCC(N3CCNCC3)CC2)c1-c1nnn[nH]1 [Example 227, 4-(4-piperazin-1-ylpiperidin-1-yl)-3-(1H-tetrazol-5-yl)pyridine-2-sulfonamide] | – | – | – | – | – | – | – | – | – | – | – | IC50 [1, 7]: 888 nM; IC50 [2, 8]: 7070 nM; IC50 [3, 9]: 261 nM; Escherichia coli expressing NDM-1 (CLB 30016) MITC95 [4]: 3.125 µM; Klebsiella pneumoniae expressing VIM-1 (IHMA 599644) MITC95 [5]: 6.25 µM; Serratia marcescens expressing IMP-1 (CL5741) MITC95 [6]: 75 µM
NS(=O)(=O)c1nccc(N2CCC(n3ccnc3)CC2)c1-c1nnn[nH]1 [Example 228, 4-[4-(1H-imidazol-1-yl)piperidin-1-yl]-3-(1H-tetrazol-5-yl)pyridine-2-sulfonamide] | – | – | – | – | – | – | – | – | – | – | – | IC50 [1, 7]: 372 nM; IC50 [2, 8]: 3210 nM; IC50 [3, 9]: 343 nM; Escherichia coli expressing NDM-1 (CLB 30016) MITC95 [4]: 1.563 µM; Klebsiella pneumoniae expressing VIM-1 (IHMA 599644) MITC95 [5]: 37.5 µM; Serratia marcescens expressing IMP-1 (CL5741) MITC95 [6]: 37.5 µM
NS(=O)(=O)c1cccc(-c2ccc(C3=CCNC3)cc2)c1-c1nn[nH]n1 [Example 285, 4′-(2,5-dihydro-1H-pyrrol-3-yl)-2-(2H-tetrazol-5-yl)-[1,1′-biphenyl]-3-sulfonamide] | 2.83 | 25.1 | 18 | 0.3906 | 3.125 | 0.7813 | – | – | – | – | – | –
Nc1cc(-c2cccc(S(N)(=O)=O)c2-c2nn[nH]n2)cnc1N [Example 523, 3-(5,6-Diaminopyridin-3-yl)-2-(2H-tetrazol-5-yl)benzenesulfonamide] | – | – | – | – | – | – | 20.2 | 1210 | 0.125 | 4.125 | 9.375 | IC50 [3, 18]: 226 nM
CC(C)[C@H](N)CN1CCC(c2ccc(-c3cccc(S(N)(=O)=O)c3-c3nnn[nH]3)cc2)CC1 [Example 615, 3-[4-[1-[(2S)-2-amino-3-methyl-butyl]-4-piperidyl]phenyl]-2-(1H-tetrazol-5-yl)benzenesulfonamide] | – | – | – | – | – | – | 9.84 | 16.7 | 0.7813 | >200 | 1.172 | IC50 [3, 18]: 621 nM
NS(=O)(=O)c1cccc(-c2ccc(CN[C@@H]3CC[C@H](O)C3)cc2)c1-c1nnn[nH]1 [Example 369, 4′-({[(1R,3S)-3-hydroxycyclopentyl]amino}methyl)-2-(1H-tetrazol-5-yl)biphenyl-3-sulfonamide] | 25.2 | 728 | 667 | 3.125 | 200 | 12.5 | – | – | – | – | – | –
CC(=O)NC1CCN(c2ccc(-c3cccc(S(N)(=O)=O)c3-c3nnn[nH]3)cn2)C1 (stereo not drawn) [Example 623, N-[1-[5-[3-sulfamoyl-2-(1H-tetrazol-5-yl)phenyl]-2-pyridyl]pyrrolidin-3-yl]acetamide] | – | – | – | – | – | – | 7.94 | 79.5 | 1.953 | 150 | 6.25 | IC50 [3, 22]: 207 nM
NS(=O)(=O)c1cccc(-c2ccc(CNCC3(O)CC3)cc2)c1-c1nnn[nH]1 [Example 380, 4′-({[(1-hydroxycyclopropyl)methyl]amino}methyl)-2-(1H-tetrazol-5-yl)biphenyl-3-sulfonamide] | 22.2 | 335 | – | 1.563 | 62.5 | 4.688 | – | – | – | – | – | IC50 [3, 23]: 263 nM
Nc1ncc(-c2ccc(Br)c(S(N)(=O)=O)c2-c2nn[nH]n2)s1 [Example 424, 3-(2-aminothiazol-5-yl)-6-bromo-2-(2H-tetrazol-5-yl)benzenesulfonamide] | 18.9 | 80.8 | 32.7 | 0.7813 | 15.63 | 1.563 | – | – | – | – | – | –
NCCN1CCC(Cc2ccc(-c3ccc(C4CNC4)cc3)c(-c3nn[nH]n3)c2S(N)(=O)=O)CC1 [Example 606, 6-[[1-(2-aminoethyl)-4-piperidyl]methyl]-3-[4-(azetidin-3-yl)phenyl]-2-(2H-tetrazol-5-yl)benzenesulfonamide] | – | – | – | – | – | – | 17.7 | 51.4 | 0.7813 | 1.563 | 3.125 | IC50 [3, 22]: 1.12 nM
NS(=O)(=O)c1c(-c2ccc(C3CCNCC3)cc2)ccc(-c2ccc(C3CCNCC3)cc2)c1-c1nn[nH]n1 [Example 430, 3,6-bis[4-(4-piperidyl)phenyl]-2-(2H-tetrazol-5-yl)benzenesulfonamide] | 52.3 | 6.38 | – | 1.563 | 3.125 | 0.3906 | – | – | – | – | – | IC50 [3, 23]: 50.8 nM
NS(=O)(=O)c1c(CCC2CCNCC2)ccc(-c2ccc(C3CCNCC3)cc2)c1-c1nn[nH]n1 [Example 460, 4′-(piperidin-4-yl)-4-(2-(piperidin-4-yl)ethyl)-2-(2H-tetrazol-5-yl)-[1,1′-biphenyl]-3-sulfonamide] | – | 16.6 | 10.4 | 0.5859 | 1.563 | 0.3906 | – | – | – | – | – | IC50 [1]: 3.97 nM
NS(=O)(=O)c1nccc(N2CCC(c3ncc[nH]3)CC2)c1-c1nnn[nH]1 [Example 240, 4-[4-(1H-imidazol-2-yl)piperidin-1-yl]-3-(1H-tetrazol-5-yl)pyridine-2-sulfonamide] | – | – | – | – | – | – | – | – | – | – | – | IC50 [1, 7]: 418 nM; IC50 [2, 8]: 3410 nM; IC50 [3, 24]: 938 nM; Escherichia coli expressing NDM-1 (CLB 30016) MITC95 [4]: 1.172 µM; Klebsiella pneumoniae expressing VIM-1 (IHMA 599644) MITC95 [5]: 25 µM; Serratia marcescens expressing IMP-1 (CL5741) MITC95 [6]: 37.5 µM
Nc1ccnc2cc(-c3ccc(C(F)(F)F)c(S(N)(=O)=O)c3-c3nnn[nH]3)ccc12 [Example 478, 3-(4-amino-7-quinolyl)-2-(1-tetrazol-5-yl)-6-(trifluoromethyl)benzenesulfonamide] | 24.6 | 88.1 | 0.639 | 0.7813 | 0.7813 | 2.344 | – | – | – | – | – | –
NS(=O)(=O)c1c(C(F)(F)F)ccc(-c2ccc(C3CCN(C4CC5CCC4N5)CC3)cc2)c1-c1nnn[nH]1 (stereo not drawn) [Example 788, 4′-[1-(7-azabicyclo[2.2.1]hept-2-yl)piperidin-4-yl]-2-(1H-tetrazol-5-yl)-4-(trifluoromethyl)biphenyl-3-sulfonamide] | – | – | – | – | – | – | – | – | – | – | – | IC50 [1, 7]: 2.83 nM; IC50 [2, 8]: 0.438 nM; IC50 [3, 24]: 35.7 nM; Escherichia coli MITC95 ([4]; CLB30016 (NDM-1), 95% inhibition of bacterial growth): 6.25 µM; Klebsiella pneumoniae MITC95 ([5]; IHMA599644 (VIM-1), 95% inhibition of bacterial growth): >200 µM; Serratia marcescens MITC95 ([6]; CL5741 (IMP-1), 95% inhibition of bacterial growth): 6.25 µM
NS(=O)(=O)c1cccc(-c2ccc(CN3CCC(CCO)C3)cc2)c1-c1nnn[nH]1 (stereo not drawn) [Example 393, 4′-{[3-(2-hydroxyethyl)pyrrolidin-1-yl]methyl}-2-(1H-tetrazol-5-yl)biphenyl-3-sulfonamide] | 10.8 | 338 | 509 | 1.563 | 200 | 4.688 | – | – | – | – | – | –
NS(=O)(=O)c1cccc(-c2ccc(N3CCC3CO)nc2)c1-c1nnn[nH]1 (stereo in doubt) [Example 636, 3-[6-[(2S)-2-(hydroxymethyl)azetidin-1-yl]-3-pyridyl]-2-(1H-tetrazol-5-yl)benzenesulfonamide] | – | – | – | – | – | – | 1.54 | 37.2 | 0.3906 | >200 | 4.688 | IC50 [3, 22]: 88.9 nM
NS(=O)(=O)c1c(CC[C@H]2CC[C@@H](N)CC2)ccc(-c2ccc(C3CCNC3)cc2)c1-c1nnn[nH]1 (stereo partly drawn) [Example 585, 4-(2-((1s,4r)-4-aminocyclohexyl)ethyl)-4′-(pyrrolidin-3-yl)-2-(1H-tetrazol-5-yl)-[1,1′-biphenyl]-3-sulfonamide] | – | – | – | – | – | – | 2.2 | 17 | 0.7813 | 6.25 | 3.125 | IC50 [3, 18]: 4.58 nM
NS(=O)(=O)c1c(C(F)(F)F)ccc(-c2cccc3cnccc23)c1-c1nn[nH]n1 [Example 515, 3-(Isoquinolin-5-yl)-2-(2H-tetrazol-5-yl)-6-(trifluoromethyl)benzenesulfonamide] | – | – | – | – | – | – | 0.603 | 3.68 | 4.688 | 6.25 | 0.3906 | IC50 [3, 22]: 0.309 nM
